How the values were obtained:
Format in all cases: physicochemical
[1] = Phase transition temperatures of sulfobetaine lipids (DSC)
Experimental: All buffers contain 10 mM HEPES, pH 7.4. Preparations were made at 26 mM SB lipid by thin film rehydration at 80° C., followed by brief 20 second bursts of sonication at 80° C. (˜2-4 times) to make dispersions of large bilayer fragments.
Based on our observations that SBL liposome formation and stability is largely dependent on salt composition and concentration we sought to determine if these effects changed the transition temperatures of the liposomes. The data in FIG. 3 clearly depicts a bi-modal phase transition behavior for the SBLs. Without salt, the majority of the SBLs are likely in one of the inner salt forms supported by the observed elevated transition temperatures.
Inner and outer salt conformations of the SBLs are hypothesized to coordinate to the observed high and low phase transitions, respectively.

[2] = Zeta/surface potential of SBL liposomes in salt solutions; conditions: order of anions; data not shown
Text: The vesicles formed in these three salts were all reasonably small, with those formed in KBr having, on average, a slighter larger diameter. This may be due the weaker binding of Br^− to the cationic region of the SBLs relative to I^− and ClO4^−, which would result in a higher percentage of SBLs in the inner-salt conformation.

[3] = SBL liposome formation, diameter and PDI in various salts; design: key to Liposome diameter (nm): DNF=Did Not Form, no liposomes formed
Experimental: The five SBLs were first examined for their ability to make vesicles under standard buffer conditions (10 mM HEPES, 140 mM NaCl, pH 7.4). We observed that none of the five SBLs were able to form stable liposomes after thin film rehydration in this buffer followed by sonication at 80° C. […] To test if the SB headgroup inner salt interactions could be disrupted by an increase in salt concentration, the same liposome formation process was performed at increasing NaCl concentrations. Salts with different anions were also tested to determine if those predicted to have greater binding than Cl^− would allow for liposome formation at concentrations where NaCl was not able to. Liposome-formation results are shown in Table 4 for all five SBLs with a variety of salts and at various NaCl concentrations.
Liposome preparations were made at 26 mM lipid in 10 mM HEPES buffer, pH 7.4 with the specified salt concentration. All preparations were rehydrated and sonicated at 80° C. for 7 minutes, allowed to cool for 5 minutes and then measured.
Liposome diameters were measured both five minutes after sonication and at 24 hours. DPSB and DSSB in NaI both formed gels and could not be measured and DPSB and DSSB with KBr precipitated into particles too large and polydisperse for measurement.

[4] = Zeta potential of BLL containing vesicles as a function of pH; conditions: changing ratio of DOBAQ:DOPC
Experimental: Liposomes containing quaternary BLL remain neutral at pH>pI, while liposomes containing tertiary BLL move from neutral to anionic as pH increases above the pI due to deprotonation of the amine.
All other lipids show pH responsive behavior, with 4° BLL generally transitioning from cationic to neutral, and 3° from cationic to neutral to anionic.
Further analysis is required to fully understand this behavior.

[5] = ZNLP hydrodynamic diameter, zeta potential and encapsulation efficiency; conditions: ZNLP encapsulating siRNA
Experimental: 5-10 min after particle formation liposomes are extruded through either 50 nm or 80 nm polycarbonate membranes 7 times. Methanol can be removed by either evaporation or dialysis.
FIG. 29 is a table showing ZNLP encapsulating siRNA: hydrodynamic diameter and zeta potential: siRNA was encapsulated into ZNLP from various zwitterionic lipids.
FIG. 30 is a table showing the effect of helper lipids on size and encapsulation efficiency: Changing helper lipid and lipid composition affects size and encapsulation efficiency of ZNLP. DOBA-Q formed small lipid vesicles≦80 nm. […] All lipid formulations display negative/neutral zeta potential.

[6] = 150 mM KBr, five minutes after sonication
[7] = 150 mM NaClO4, five minutes after sonication
[8] = 150 mM NaI, five minutes after sonication
[9] = 500 mM NaCl, 26 mM lipid, 10 mM HEPES pH 7.4
[10] = 1000 mM NaCl, 26 mM lipid, 10 mM HEPES pH 7.4

In the case of `CCCCCCCCCCCCCC(=O)OCC(C[N+](C)(C)CCCS(=O)(=O)[O-])OC(=O)CCCCCCCCCCCCC` (stereo not shown) [DMSB], the phase transitions observed ([1]; 150 mM NaClO4) is reported as “only the high transition”, the phase transitions observed ([1]; 150 mM NaF) is reported as “only the low transition” and the “inner/outer salt form (high/low transition) as function of NaCl concentration” value ([1]; DSC, 10 mM HEPES pH 7.4, NaCl up to 1M) is reported as “existing as the outer salt with a high transition temperature for all NaCl concentrations up to 1M”. For the same molecule, the “Transition Temperatures (° C.), SB Inner Salt” value ([1]; hypothesized inner salt form, observed high phase transition) was 48 °C, the “Transition Temperatures (° C.), SB Outer Salt” value ([1]; hypothesized outer salt form, observed low phase transition) was 25-30 °C and the “zeta-potential (surface potential) in various salt solutions” value [2] was “most negative for ClO4^−>I^−>Br^−>Cl^−”. The “Liposome diameter (nm)” value ([3]; 0 mM NaCl, 26 mM lipid, 10 mM HEPES pH 7.4) was “DNF”, the “Liposome diameter (nm)” value ([3]; 150 mM KBr (24 h)) was 31.67 nm and the PDI ([3]; 150 mM KBr (24 h)) was 0.181. The “Liposome diameter (nm)” value [3, 6] was 28.53 nm, the PDI [3, 6] was 0.160 and the “Liposome diameter (nm)” value ([3]; 150 mM NaCl, 26 mM lipid, 10 mM HEPES pH 7.4) was “DNF”. For the same molecule, the “Liposome diameter (nm)” value ([3]; 150 mM NaClO4 (24 h)) was 43.68 nm, the PDI ([3]; 150 mM NaClO4 (24 h)) was 0.24 and the “Liposome diameter (nm)” value [3, 7] was 41.76 nm. The PDI [3, 7] was 0.239, the “Liposome diameter (nm)” value ([3]; 150 mM NaF) was “DNF” and the “Liposome diameter (nm)” value ([3]; 150 mM NaI (24 h)) was 38.69 nm. The PDI ([3]; 150 mM NaI (24 h)) was 0.250, the “Liposome diameter (nm)” value [3, 8] was 35.3 nm and the PDI [3, 8] was 0.232. The “Liposome diameter (nm)” value [3, 9] was 63.92 nm, the PDI [3, 9] was 0.385 and the liposome formation ([3]; 500 mM NaF) was “unable to form liposomes”. The “Liposome diameter (nm)” value [3, 10] was 76.8 nm and the PDI [3, 10] was 0.233.
For `CCCCCCCC/C=C\CCCCCCCC(=O)OCC(C[N+](C)(C)Cc1ccc(C(=O)[O-])cc1)OC(=O)CCCCCCC/C=C\CCCCCCCC` (stereo not shown) [DOBAQ], the “Zeta potential as function of pH, effect of BLL:DOPC ratio” value [4] was “general relationship between pH and zeta potential is maintained at all ratios tested” and the “ZNLP size (hydrodynamic diameter)” value [5] was at most 80 nm.
